Reference: PubChem BioAssay (NCI)
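Tested at 5 concentrations; 48 h exposure; 96-well plates; endpoints linearly interpolated, else capped at highest concentration. TGI: total growth inhibition.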

Key:
Assay in all cases: NCI tumour cell line growth inhibition, 48 h
HOP-18 NSCLC = tested on: HOP-18 NSCLC
SN12C renal = tested on: SN12C renal
SNB-75 CNS = tested on: SNB-75 CNS
HT29 colon = tested on: HT29 colon
SNB-78 CNS = tested on: SNB-78 CNS
CCRF-CEM leukemia = tested on: CCRF-CEM leukemia
RPMI-8226 leukemia = tested on: RPMI-8226 leukemia
UACC-257 melanoma = tested on: UACC-257 melanoma
MCF7 breast = tested on: MCF7 breast
XF 498 CNS = tested on: XF 498 CNS
DMS 273 small cell lung = tested on: DMS 273 small cell lung
EKVX NSCLC = tested on: EKVX NSCLC
HCT-116 colon = tested on: HCT-116 colon
U251 CNS = tested on: U251 CNS
MOLT-4 leukemia = tested on: MOLT-4 leukemia
A498 renal = tested on: A498 renal
OVCAR-8 ovarian = tested on: OVCAR-8 ovarian
SK-MEL-5 melanoma = tested on: SK-MEL-5 melanoma
HL-60(TB) leukemia = tested on: HL-60(TB) leukemia
HOP-62 NSCLC = tested on: HOP-62 NSCLC
HOP-92 NSCLC = tested on: HOP-92 NSCLC
DMS 114 small cell lung = tested on: DMS 114 small cell lung
NCI-H23 lung = tested on: NCI-H23 lung
NCI/ADR-RES ovarian = tested on: NCI/ADR-RES ovarian
K-562 leukemia = tested on: K-562 leukemia
COLO 205 colon = tested on: COLO 205 colon
MALME-3M melanoma = tested on: MALME-3M melanoma
M19-MEL melanoma = tested on: M19-MEL melanoma
P388/ADR leukemia = tested on: P388/ADR leukemia
UACC-62 melanoma = tested on: UACC-62 melanoma
SK-OV-3 ovarian = tested on: SK-OV-3 ovarian
SNB-19 CNS = tested on: SNB-19 CNS
NCI-H226 lung = tested on: NCI-H226 lung
A549 NSCLC = tested on: A549 NSCLC
SF-268 CNS = tested on: SF-268 CNS
RXF 393 renal = tested on: RXF 393 renal
SF-295 CNS = tested on: SF-295 CNS
P388 leukemia = tested on: P388 leukemia
DLD-1 colon = tested on: DLD-1 colon
IGROV1 ovarian = tested on: IGROV1 ovarian
OVCAR-5 ovarian = tested on: OVCAR-5 ovarian
NCI-H460 lung = tested on: NCI-H460 lung
UO-31 renal = tested on: UO-31 renal
HCT-15 colon = tested on: HCT-15 colon
SW-620 colon = tested on: SW-620 colon
KM20L2 colon = tested on: KM20L2 colon
HCC-2998 colon = tested on: HCC-2998 colon
SK-MEL-2 melanoma = tested on: SK-MEL-2 melanoma
OVCAR-4 ovarian = tested on: OVCAR-4 ovarian
LOX IMVI melanoma = tested on: LOX IMVI melanoma
SN12K1 renal = tested on: SN12K1 renal
SF-539 CNS = tested on: SF-539 CNS
OVCAR-3 ovarian = tested on: OVCAR-3 ovarian
NCI-H522 lung = tested on: NCI-H522 lung
SK-MEL-28 melanoma = tested on: SK-MEL-28 melanoma
KM12 colon = tested on: KM12 colon

`O=[N+]([O-])c1ccc2[nH]c3c(-c4ccccc4)nccc3c2c1` gave a TGI (HOP-18 NSCLC) of 61.9 µM, a TGI (SN12C renal) greater than 84.6 µM and a TGI (SNB-75 CNS) of 38.3 µM. It also gave a TGI (HT29 colon) greater than 100 µM, a TGI (SNB-78 CNS) of 93.1 µM and a TGI (CCRF-CEM leukemia) of 62.7 µM. The TGI (RPMI-8226 leukemia) was greater than 100 µM, the TGI (UACC-257 melanoma) was 89.4 µM and the TGI (MCF7 breast) was greater than 60.3 µM. The TGI (XF 498 CNS) was greater than 61.7 µM, the TGI (DMS 273 small cell lung) was 18.1 µM and the TGI (EKVX NSCLC) was greater than 79.3 µM. It also gave a TGI (HCT-116 colon) greater than 51.8 µM, a TGI (U251 CNS) greater than 64.9 µM and a TGI (MOLT-4 leukemia) of 16.4 µM. The TGI (A498 renal) was greater than 100 µM, the TGI (OVCAR-8 ovarian) was greater than 58.7 µM and the TGI (SK-MEL-5 melanoma) was greater than 61.1 µM. The TGI (HL-60(TB) leukemia) was 26.4 µM, the TGI (HOP-62 NSCLC) was 43 µM and the TGI (HOP-92 NSCLC) was 65.9 µM. It also gave a TGI (DMS 114 small cell lung) greater than 87.2 µM, a TGI (NCI-H23 lung) greater than 100 µM and a TGI (NCI/ADR-RES ovarian) greater than 65.1 µM. It also gave a TGI (K-562 leukemia) greater than 100 µM, a TGI (COLO 205 colon) greater than 86.8 µM and a TGI (MALME-3M melanoma) of 50.7 µM. For the same molecule, the TGI (M19-MEL melanoma) was greater than 78.4 µM, the TGI (P388/ADR leukemia) was 31.4 µM and the TGI (UACC-62 melanoma) was 38.6 µM. It also gave a TGI (SK-OV-3 ovarian) of 55.7 µM, a TGI (SNB-19 CNS) of 58.5 µM and a TGI (NCI-H226 lung) of 50.5 µM. The TGI (A549 NSCLC) was greater than 62 µM, the TGI (SF-268 CNS) was greater than 80 µM and the TGI (RXF 393 renal) was greater than 96.2 µM. It also gave a TGI (SF-295 CNS) of 45.7 µM, a TGI (P388 leukemia) greater than 47.3 µM and a TGI (DLD-1 colon) greater than 94.3 µM. The TGI (IGROV1 ovarian) was 48.6 µM, the TGI (OVCAR-5 ovarian) was greater than 100 µM and the TGI (NCI-H460 lung) was 40.9 µM. It also gave a TGI (UO-31 renal) of 44.4 µM, a TGI (HCT-15 colon) greater than 74.7 µM and a TGI (SW-620 colon) greater than 89.7 µM. The TGI (KM20L2 colon) was greater than 100 µM, the TGI (HCC-2998 colon) was 71 µM and the TGI (SK-MEL-2 melanoma) was 76.6 µM. The TGI (OVCAR-4 ovarian) was greater than 63.1 µM, the TGI (LOX IMVI melanoma) was greater than 100 µM and the TGI (SN12K1 renal) was 79.9 µM. For the same molecule, the TGI (SF-539 CNS) was greater than 100 µM, the TGI (OVCAR-3 ovarian) was 39.4 µM and the TGI (NCI-H522 lung) was 37.4 µM. It also gave a TGI (SK-MEL-28 melanoma) greater than 85.3 µM and a TGI (KM12 colon) greater than 100 µM.
`CCCCCOc1ccc(C=Nc2ccc(-c3ccc(N=Cc4ccc(OCCCCC)cc4)c(OC)c3)cc2OC)cc1` was tested, and the TGI (HOP-18 NSCLC) was greater than 100 µM, the TGI (SN12C renal) was greater than 100 µM and the TGI (SNB-75 CNS) was greater than 100 µM. For the same molecule, the TGI (HT29 colon) was greater than 100 µM, the TGI (SNB-78 CNS) was greater than 100 µM and the TGI (CCRF-CEM leukemia) was greater than 100 µM. It also gave a TGI (RPMI-8226 leukemia) greater than 100 µM, a TGI (UACC-257 melanoma) greater than 100 µM and a TGI (MCF7 breast) greater than 100 µM. For the same molecule, the TGI (XF 498 CNS) was greater than 100 µM, the TGI (DMS 273 small cell lung) was greater than 100 µM and the TGI (EKVX NSCLC) was greater than 100 µM. For the same molecule, the TGI (HCT-116 colon) was greater than 100 µM, the TGI (U251 CNS) was greater than 100 µM and the TGI (MOLT-4 leukemia) was greater than 100 µM. For the same molecule, the TGI (A498 renal) was greater than 100 µM, the TGI (OVCAR-8 ovarian) was greater than 100 µM and the TGI (SK-MEL-5 melanoma) was greater than 100 µM. For the same molecule, the TGI (HL-60(TB) leukemia) was greater than 100 µM, the TGI (HOP-62 NSCLC) was greater than 100 µM and the TGI (HOP-92 NSCLC) was greater than 100 µM. For the same molecule, the TGI (DMS 114 small cell lung) was greater than 100 µM, the TGI (NCI-H23 lung) was greater than 100 µM and the TGI (NCI/ADR-RES ovarian) was greater than 100 µM. The TGI (K-562 leukemia) was greater than 31.6 µM, the TGI (COLO 205 colon) was greater than 100 µM and the TGI (MALME-3M melanoma) was greater than 100 µM. For the same molecule, the TGI (M19-MEL melanoma) was greater than 100 µM, the TGI (UACC-62 melanoma) was greater than 100 µM and the TGI (SK-OV-3 ovarian) was greater than 100 µM. The TGI (SNB-19 CNS) was greater than 100 µM, the TGI (NCI-H226 lung) was greater than 100 µM and the TGI (A549 NSCLC) was greater than 100 µM. It also gave a TGI (SF-268 CNS) greater than 100 µM, a TGI (RXF 393 renal) greater than 100 µM and a TGI (SF-295 CNS) greater than 100 µM. It also gave a TGI (P388 leukemia) greater than 100 µM, a TGI (DLD-1 colon) greater than 100 µM and a TGI (IGROV1 ovarian) greater than 100 µM. For the same molecule, the TGI (OVCAR-5 ovarian) was greater than 100 µM, the TGI (NCI-H460 lung) was greater than 100 µM and the TGI (UO-31 renal) was greater than 100 µM. It also gave a TGI (HCT-15 colon) greater than 100 µM, a TGI (SW-620 colon) greater than 100 µM and a TGI (KM20L2 colon) greater than 100 µM. It also gave a TGI (HCC-2998 colon) greater than 100 µM, a TGI (SK-MEL-2 melanoma) greater than 100 µM and a TGI (OVCAR-4 ovarian) greater than 31.6 µM. The TGI (LOX IMVI melanoma) was greater than 100 µM, the TGI (SN12K1 renal) was greater than 100 µM and the TGI (SF-539 CNS) was greater than 100 µM. It also gave a TGI (OVCAR-3 ovarian) greater than 100 µM, a TGI (NCI-H522 lung) greater than 100 µM and a TGI (SK-MEL-28 melanoma) greater than 100 µM. It also gave a TGI (KM12 colon) greater than 100 µM.
